Literature values as cited in US20120122237A1, “HOMOGENEOUS NONCOMPETITIVE DETECTION OF POST TRANSLATIONAL MODIFICATIONS FOR USE IN HIGH THROUGHPUT ASSAYS” (priority 2010, published 2012).

Assays:
[1] = tested on: Monoclonal Antibody for Atrazine
[2] = tested on: Monoclonal Antibody for Atrazine; conditions: competitive ELISA
[3] = tested on: Polyclonal antibody for 3-PBA; conditions: competitive ELISA
[4] = tested on: Polyclonal antibody for 3-PBA

| Compound | Crossreactivity (%) PHAIA [1] | Crossreactivity (%) ELISA [2] | Crossreactivity (%) ELISA [3] | Crossreactivity (%) PHAIA [4] |
| --- | --- | --- | --- | --- |
| CCNc1nc(Cl)nc(NCC)n1 [simazine] | 0% | 48% |  |  |
| CCNc1nc(Cl)nc(NC(C)(C)C#N)n1 [cyanazine] | 0% | 91% |  |  |
| O=C(O)c1cccc(Oc2ccccc2)c1 [3-PBA, 3-phenoxybenzoic acid] |  |  | 100% | 100% |
| 4-hydroxy 3-PBA |  |  | 98% | 0% |
| O=Cc1cccc(Oc2ccccc2)c1 [3-pheonoxy aldehyde] |  |  | 10% | 3% |
| CCNc1nc(Cl)nc(NC(C)C)n1 [atrazine] | 100% | 100% |  |  |
| CC(C)Nc1nc(Cl)nc(NC(C)C)n1 [propazine] | 144% | 116% |  |  |
